What was measured:
TPS25 = target: T1, TPS25 (Arabidopsis thaliana, UniProt Q9LIA1); assay: in vitro assay, SPME-GC-MS; assay type: biochemical; settings: main product (E)-beta-farnesene
T1 construct: N-terminal 25 aa (transit peptide) removed; TOPO-pET102; E. coli; partially purified
T1 sequence (Q9LIA1 26-603): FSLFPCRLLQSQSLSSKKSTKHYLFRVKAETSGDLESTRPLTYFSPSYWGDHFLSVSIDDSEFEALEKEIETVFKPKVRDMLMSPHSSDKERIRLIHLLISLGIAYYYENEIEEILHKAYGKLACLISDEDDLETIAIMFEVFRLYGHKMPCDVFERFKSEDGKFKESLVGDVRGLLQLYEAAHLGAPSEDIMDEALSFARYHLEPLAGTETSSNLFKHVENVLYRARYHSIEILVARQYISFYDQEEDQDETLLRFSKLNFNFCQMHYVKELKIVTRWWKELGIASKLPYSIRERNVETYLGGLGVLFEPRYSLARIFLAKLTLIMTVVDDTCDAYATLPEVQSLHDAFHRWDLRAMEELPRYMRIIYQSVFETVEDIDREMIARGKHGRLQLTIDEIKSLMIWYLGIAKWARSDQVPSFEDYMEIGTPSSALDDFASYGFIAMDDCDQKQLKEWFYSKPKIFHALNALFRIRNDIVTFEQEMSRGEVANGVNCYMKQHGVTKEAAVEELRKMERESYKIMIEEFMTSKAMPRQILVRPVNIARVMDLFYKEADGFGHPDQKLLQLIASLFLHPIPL

TPS9 [1] = target: T2, TPS9 (Arabidopsis thaliana, UniProt Q8L7G4); assay: E. coli coexpression with (E,E)-FPP synthase, GC-MS; assay type: cell-based; settings: trace nerolidol and (E)-beta-farnesene formed
T2 construct: gene TPS09; pET Duet; no truncation stated; RIKEN full-length cDNA clone; expressed in E. coli with prenyl diphosphate synthase
T2 sequence (Q8L7G4 1-607): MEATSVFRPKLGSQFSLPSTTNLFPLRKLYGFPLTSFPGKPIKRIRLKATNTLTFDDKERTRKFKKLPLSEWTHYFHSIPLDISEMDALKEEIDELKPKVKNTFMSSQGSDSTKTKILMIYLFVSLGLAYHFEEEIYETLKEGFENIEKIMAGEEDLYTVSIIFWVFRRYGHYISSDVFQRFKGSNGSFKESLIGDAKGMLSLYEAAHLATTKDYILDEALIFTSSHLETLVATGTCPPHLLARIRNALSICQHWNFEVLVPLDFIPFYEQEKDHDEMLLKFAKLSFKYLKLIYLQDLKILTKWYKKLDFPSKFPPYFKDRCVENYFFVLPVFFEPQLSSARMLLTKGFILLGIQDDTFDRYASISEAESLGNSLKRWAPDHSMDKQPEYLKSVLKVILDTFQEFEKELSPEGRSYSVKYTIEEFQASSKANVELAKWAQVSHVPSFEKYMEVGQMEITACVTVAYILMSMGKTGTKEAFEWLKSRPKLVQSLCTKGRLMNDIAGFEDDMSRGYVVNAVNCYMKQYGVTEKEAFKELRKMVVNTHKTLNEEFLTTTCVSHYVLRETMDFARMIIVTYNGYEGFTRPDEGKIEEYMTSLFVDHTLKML

TPS22 = target: T3, TPS22 (Arabidopsis thaliana, UniProt Q9LQ27); assay: in vitro assay, SPME-GC-MS; assay type: biochemical; settings: main product (E)-beta-farnesene
T3 construct: N-terminal 41 aa (transit peptide) removed; TOPO-pET102; E. coli; partially purified
T3 sequence (Q9LQ27 42-603): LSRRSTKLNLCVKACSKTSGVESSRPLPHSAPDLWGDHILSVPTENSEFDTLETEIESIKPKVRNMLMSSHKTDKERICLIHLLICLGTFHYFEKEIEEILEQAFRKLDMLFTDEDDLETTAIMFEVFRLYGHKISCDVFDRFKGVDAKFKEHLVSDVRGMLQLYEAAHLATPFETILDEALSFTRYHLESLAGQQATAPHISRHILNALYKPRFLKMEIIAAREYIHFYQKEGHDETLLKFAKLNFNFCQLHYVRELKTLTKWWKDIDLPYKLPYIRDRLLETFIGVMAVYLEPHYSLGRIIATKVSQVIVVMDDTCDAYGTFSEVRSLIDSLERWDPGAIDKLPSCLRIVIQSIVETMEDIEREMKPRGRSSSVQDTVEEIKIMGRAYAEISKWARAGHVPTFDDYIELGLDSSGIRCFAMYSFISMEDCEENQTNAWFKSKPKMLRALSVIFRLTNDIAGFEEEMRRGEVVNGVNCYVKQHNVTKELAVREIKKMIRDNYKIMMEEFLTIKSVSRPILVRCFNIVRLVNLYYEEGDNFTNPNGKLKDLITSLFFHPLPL

TPS26 = target: T4, TPS26 (Arabidopsis thaliana, UniProt Q9C8E3); assay: E. coli coexpression with (E,E)-FPP synthase, GC-MS; assay type: cell-based; settings: trace alpha-humulene and (E)-beta-farnesene formed
T4 construct: N-terminal 38 aa removed; pET28a; RIKEN cDNA clone; expressed in E. coli with prenyl diphosphate synthase
T4 sequence (Q9C8E3 39-598): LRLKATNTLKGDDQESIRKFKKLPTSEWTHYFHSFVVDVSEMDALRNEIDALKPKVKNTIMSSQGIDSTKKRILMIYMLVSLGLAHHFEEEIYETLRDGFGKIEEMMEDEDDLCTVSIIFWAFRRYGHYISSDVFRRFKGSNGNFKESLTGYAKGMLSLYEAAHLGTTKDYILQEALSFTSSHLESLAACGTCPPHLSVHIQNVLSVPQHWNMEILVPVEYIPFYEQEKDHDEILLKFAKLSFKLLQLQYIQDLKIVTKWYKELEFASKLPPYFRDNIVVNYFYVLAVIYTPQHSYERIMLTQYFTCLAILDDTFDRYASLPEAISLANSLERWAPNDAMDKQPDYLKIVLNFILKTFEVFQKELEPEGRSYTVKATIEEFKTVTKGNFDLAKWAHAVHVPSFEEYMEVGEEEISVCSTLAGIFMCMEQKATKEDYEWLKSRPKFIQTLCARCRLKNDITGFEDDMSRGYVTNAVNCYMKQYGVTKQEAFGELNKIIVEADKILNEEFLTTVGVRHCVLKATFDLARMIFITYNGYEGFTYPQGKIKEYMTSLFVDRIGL

TPS6c = target: T5, TPS6c (Arabidopsis thaliana, UniProt Q84UU9); assay: E. coli coexpression with GGPP synthase, GC-MS; assay type: cell-based; settings: product (3E,7E)-dolabella-3,7-dien-18-ol and an unknown diterpene
T5 construct: gene TPS06; N-terminal 53 aa removed; pET28a; expressed in E. coli with GGPP synthase
T5 sequence (Q84UU9 54-611): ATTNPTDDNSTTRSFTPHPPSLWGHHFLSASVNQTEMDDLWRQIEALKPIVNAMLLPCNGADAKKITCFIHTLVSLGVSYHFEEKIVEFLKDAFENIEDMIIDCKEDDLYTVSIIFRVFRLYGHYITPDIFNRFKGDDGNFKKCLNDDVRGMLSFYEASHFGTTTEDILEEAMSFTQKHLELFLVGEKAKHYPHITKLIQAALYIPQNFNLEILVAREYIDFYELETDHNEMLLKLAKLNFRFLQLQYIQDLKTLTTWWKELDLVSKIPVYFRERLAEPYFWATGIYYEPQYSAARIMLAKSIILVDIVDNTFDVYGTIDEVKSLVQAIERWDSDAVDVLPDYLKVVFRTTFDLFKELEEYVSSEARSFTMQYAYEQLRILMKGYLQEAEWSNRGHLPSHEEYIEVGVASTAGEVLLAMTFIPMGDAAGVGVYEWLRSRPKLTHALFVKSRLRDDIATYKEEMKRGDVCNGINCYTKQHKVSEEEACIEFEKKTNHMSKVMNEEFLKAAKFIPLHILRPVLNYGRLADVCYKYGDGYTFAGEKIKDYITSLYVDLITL

TPS30 = target: T6, TPS30 (Arabidopsis thaliana, UniProt Q9LH31); assay: E. coli coexpression with GGPP synthase, GC-MS; assay type: cell-based; settings: two unknown diterpenes formed
T6 construct: N-terminal 48 aa removed; pET28a; expressed in E. coli with prenyl diphosphate synthase
T6 sequence (Q9LH31 49-604): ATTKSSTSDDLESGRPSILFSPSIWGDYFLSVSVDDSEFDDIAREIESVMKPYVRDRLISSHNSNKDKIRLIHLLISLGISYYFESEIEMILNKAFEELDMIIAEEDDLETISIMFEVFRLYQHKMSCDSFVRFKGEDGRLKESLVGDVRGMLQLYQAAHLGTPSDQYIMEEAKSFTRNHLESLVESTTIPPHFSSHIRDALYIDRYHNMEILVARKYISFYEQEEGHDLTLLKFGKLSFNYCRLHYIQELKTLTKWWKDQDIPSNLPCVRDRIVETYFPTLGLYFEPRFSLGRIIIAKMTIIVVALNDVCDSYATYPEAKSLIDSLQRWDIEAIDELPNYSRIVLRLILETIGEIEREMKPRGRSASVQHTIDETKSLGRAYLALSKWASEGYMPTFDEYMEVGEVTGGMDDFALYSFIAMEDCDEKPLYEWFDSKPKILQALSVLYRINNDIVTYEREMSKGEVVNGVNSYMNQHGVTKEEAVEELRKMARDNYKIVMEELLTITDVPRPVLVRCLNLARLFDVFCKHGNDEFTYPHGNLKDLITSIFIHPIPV

TPS9 [2] = target: T2, TPS9; assay: E. coli coexpression with GGPP synthase, GC-MS; assay type: cell-based; settings: unidentified diterpene olefins formed
TPS20c = target: T7, TPS20c (Arabidopsis thaliana, UniProt Q9FI27); assay: radiochemical terpene synthase assay; assay type: biochemical; settings: labelled compound ([1-3H]-GGPP); six concentrations, triplicate
T7 construct: gene TPS20; first 53 aa (plastid transit peptide) removed; N-terminal His-tag (pET28a NdeI/XhoI); E. coli; partially purified
T7 sequence (Q9FI27 54-575): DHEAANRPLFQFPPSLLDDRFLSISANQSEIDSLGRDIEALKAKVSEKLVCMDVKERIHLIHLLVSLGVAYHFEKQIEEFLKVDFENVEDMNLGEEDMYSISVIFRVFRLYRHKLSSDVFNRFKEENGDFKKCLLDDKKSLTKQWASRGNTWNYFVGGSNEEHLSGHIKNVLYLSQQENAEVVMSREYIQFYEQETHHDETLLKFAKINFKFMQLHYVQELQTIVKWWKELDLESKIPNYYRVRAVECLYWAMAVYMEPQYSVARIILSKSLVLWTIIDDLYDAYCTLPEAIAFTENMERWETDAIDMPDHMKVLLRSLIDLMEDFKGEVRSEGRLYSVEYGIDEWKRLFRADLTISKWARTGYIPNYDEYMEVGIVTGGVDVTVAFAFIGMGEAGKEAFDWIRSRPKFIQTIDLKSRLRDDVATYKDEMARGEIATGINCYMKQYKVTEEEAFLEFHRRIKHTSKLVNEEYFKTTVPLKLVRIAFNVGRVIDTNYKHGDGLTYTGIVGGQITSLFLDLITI
From the text: radiochemical terpene synthase assay on TPS20c

Row | Km (TPS20c) [µM] | SMILES | in vitro assay, SPME-GC-MS (TPS25) | E. coli coexpression with (E,E)-FPP synthase, GC-MS (TPS9 [1]) | in vitro assay, SPME-GC-MS (TPS22) | E. coli coexpression with (E,E)-FPP synthase, GC-MS (TPS26) | E. coli coexpression with GGPP synthase, GC-MS (TPS6c) | E. coli coexpression with GGPP synthase, GC-MS (TPS30) | E. coli coexpression with GGPP synthase, GC-MS (TPS9 [2])
1 | – | CC(C)=CCC/C(C)=C/CC/C(C)=C/COP(=O)(O)OP(=O)(O)O [(E,E)-FPP] | both proteins converted (E,E)-FPP into sesquiterpenes in vitro with (E)-β-farnesene as the main compound | When co-expressed with (E,E)-FPP synthase, TPS9 produced trace amounts of nerolidol and (E)-β-farnesene | both proteins converted (E,E)-FPP into sesquiterpenes in vitro with (E)-β-farnesene as the main compound | trace amounts of α-humulene and (E)-β-farnesene being produced by TPS26 | – | – | –
2 | 6.29 ± 0.24 | CC(C)=CCC/C(C)=C/CC/C(C)=C/CC/C(C)=C/COP(=O)(O)OP(=O)(O)O [GGPP] | – | – | – | – | TPS6c reacts with GGPP to produce dolabelladienol and an unknown diterpene | protein encoded by gene TPS30 reacted with GGPP to form two unknown diterpenes | TPS9 converted GGPP to one predominant diterpene olefin and eight minor diterpene products

Source: article PMC5122590, “Identification of a Dolabellane Type Diterpene Synthase and other Root-Expressed Diterpene Synthases in Arabidopsis” (Frontiers in Plant Science, 2016)
